From patent publication EP2340832A1, “Morphinan-6-one compounds for the treatment or prevention of neurodegenerative diseases” (Universität Innsbruck, priority 2009, dated 2011)
Read-outs that look alike come from different tables or passages of the source.

How the values were obtained:
[1] = target: T1, δ opioid receptors (Rattus norvegicus, UniProt P33533); assay: Opioid receptor binding assay, [3H][Ile5,6]deltorphin II, rat brain membranes; parameters: species or system Sprague-Dawley rat
T1 construct: Membrane fractions were prepared from Sprague-Dawley rat or guinea pig brains; from tissue; host or cells: Sprague-Dawley rat brain (without cerebella) membranes
T1 sequence (P33533 whole entry): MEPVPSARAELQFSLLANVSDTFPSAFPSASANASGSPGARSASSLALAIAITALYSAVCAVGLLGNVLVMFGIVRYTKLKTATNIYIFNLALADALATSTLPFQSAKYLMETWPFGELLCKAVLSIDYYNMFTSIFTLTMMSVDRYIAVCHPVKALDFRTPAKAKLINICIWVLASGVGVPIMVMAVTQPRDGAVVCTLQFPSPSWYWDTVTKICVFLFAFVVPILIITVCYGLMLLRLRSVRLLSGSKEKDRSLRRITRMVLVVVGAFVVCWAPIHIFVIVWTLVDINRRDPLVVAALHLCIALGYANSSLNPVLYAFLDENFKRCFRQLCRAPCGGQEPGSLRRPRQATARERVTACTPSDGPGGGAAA
Protocol: (§1) Briefly, brains without cerebella were homogenised on ice in 5 volumes of ice-cold 50 mM Tris-HCI buffer (pH 7.4) and diluted in 30 volumes of the same buffer. After centrifugation at 40,000 x g for 20 min at 4°C, the pellets were resuspended in 30 volumes of Tris-HCI buffer and incubated at 37 °C for 30 min (rat brain) or for 10 min (guinea pig brain). The centrifugation step was repeated and the final pellets were resuspended in 5 volumes of 50 mM Tris-HCI buffer (pH 7.4) containing 0.32 M sucrose to give a protein concentration of 4 - 6 mg/ml. Protein concentration was determined by the method of Bradford using bovine serum albumin as standard.
(§2) Binding experiments were performed in 50 mM Tris-HCI buffer (pH 7.4) in a final volume of 1 ml containing 0.3 - 0.5 mg protein and different concentrations of the compounds. […] Guinea pig brain membranes were incubated with [^3H]U69,593 (30 min, 30 °C). Non-specific binding was determined in the presence of 10 µM unlabeled naloxone. […] Inhibition constant (Ki) values were calculated from competition binding curves using GraphPad Prism (San Diego, CA, USA) program. The values are expressed as the mean ± S.E.M of 2-4 independent experiments, each performed in duplicate.
(§3) The morphinan-6-one compounds of the present invention were evaluated in in vitro receptor binding assays for their interaction abilities with µ, δ and k opioid receptors. […] The affinities of the compounds at k opioid receptors were determined by displacement of [^3H]U69,593 using guinea pig brain membranes.

[2] = target: T2, electric eel AChE (EC 3.1.1.7) (Electrophorus electricus, UniProt O42275); assay: Spectrophotometric assay for AChE inhibitory activity (modified Ellman's method); format: biochemical
T2 construct: purchased Sigma-Aldrich, Germany
T2 sequence (O42275 24-633): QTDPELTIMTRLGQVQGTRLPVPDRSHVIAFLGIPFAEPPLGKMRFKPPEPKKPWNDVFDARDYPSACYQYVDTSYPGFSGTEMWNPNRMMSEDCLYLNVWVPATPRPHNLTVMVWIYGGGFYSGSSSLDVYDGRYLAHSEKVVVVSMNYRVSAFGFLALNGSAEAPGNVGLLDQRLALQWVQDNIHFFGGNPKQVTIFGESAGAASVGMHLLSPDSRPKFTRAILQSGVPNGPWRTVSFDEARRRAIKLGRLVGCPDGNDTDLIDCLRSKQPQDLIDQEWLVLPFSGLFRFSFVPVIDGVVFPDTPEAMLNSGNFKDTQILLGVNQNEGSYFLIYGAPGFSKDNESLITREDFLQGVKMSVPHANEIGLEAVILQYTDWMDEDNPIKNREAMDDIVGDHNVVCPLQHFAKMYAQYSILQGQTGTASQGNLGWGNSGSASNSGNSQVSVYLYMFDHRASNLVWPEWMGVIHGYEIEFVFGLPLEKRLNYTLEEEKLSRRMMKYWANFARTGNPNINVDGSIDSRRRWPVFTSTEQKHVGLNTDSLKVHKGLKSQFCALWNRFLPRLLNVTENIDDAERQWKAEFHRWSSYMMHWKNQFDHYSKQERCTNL

[3] = target: T3, k opioid receptors (Cavia porcellus, UniProt P41144); assay: Opioid receptor binding assay, [3H]U69,593, guinea pig brain membranes
T3 construct: Membrane fractions were prepared from Sprague-Dawley rat or guinea pig brains; from tissue; host or cells: guinea pig brain (without cerebella) membranes
T3 sequence (P41144 whole entry): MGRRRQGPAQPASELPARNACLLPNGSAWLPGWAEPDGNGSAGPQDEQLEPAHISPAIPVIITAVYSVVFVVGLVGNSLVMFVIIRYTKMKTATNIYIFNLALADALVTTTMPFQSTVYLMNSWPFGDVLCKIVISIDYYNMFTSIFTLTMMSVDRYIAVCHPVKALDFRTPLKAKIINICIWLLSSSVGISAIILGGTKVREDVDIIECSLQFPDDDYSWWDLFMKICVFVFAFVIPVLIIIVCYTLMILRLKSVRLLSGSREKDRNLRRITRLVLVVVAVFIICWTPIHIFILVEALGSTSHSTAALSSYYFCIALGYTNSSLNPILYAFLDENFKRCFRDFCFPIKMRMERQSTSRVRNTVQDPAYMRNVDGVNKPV
Protocol: as §1, §2, §3

[4] = test system: extracellular ACh concentration in the nucleus accumbens; details: for 0AUC120 min (% increase x min) Mean ± SEM: 0 to 120 min; for Increase in ACh release (Peak increase as % of basal output): nucleus accumbens
[5] = test system: C57BL/6N female mice; assay: Object recognition task; details: for object recognition (memory): normal mice; for effect on scopolamine-induced impairment of object recognition: scopolamine-pretreated mice, dose not given
[6] = test system: frontal cortex synaptosomes; assay: ACh release from synaptosomes (15 mM K+-evoked [3H]-ACh release, superfusion); format: cell-based, male Sprague Dawley rats; details: 0.1 to 100 µM
Protocol: Preparation of synaptosomes: synaptosomes were prepared from brain frontal cortex of male Sprague Dawley rats (4 months old). The frontal cortex was rapidly dissected on ice and homogenized in 40 volumes of 0.32 M sucrose buffered at pH 7.4 with 0.01 M sodium phosphate. The homogenate was centrifuged at 1,000 g for 5 min. The crude synaptosomal pellet was obtained by centrifugation of the supernatant at 15,000 g for 20 min and was resuspended in 5 ml basal medium (125 mM Nacl, 3 mM KCI, 1.2 mM MgS04, 1.2 mM CaCl2, 1.0 mM NaH2PO4, 22 mM NaHCO3 and 10 mM glucose) which had been gassed with 95% O2 - 5% CO2 at 37 °C, pH 7.2 - 7.4.
Superfusion protocol: The synaptosomal suspension was incubated with [^3H]-choline (0.03 µM, 17.5x10^6 Bq/g) for 15 min at 37 °C. Then, the suspension was diluted (1:8) and aliquots were applied on filters in a continuous superfusion system with parallel chambers maintained at 37 °C. The media used for superfusion were basal medium and 15 mM K^+-containing stimulation medium. Both media were supplemented with ACh (1 µM) to facilitate the effectiveness of an allosteric potentiating ligand at the nicotine receptor and with atropine (0.1 µM) to block M2 presynaptic receptors. Synaptosomes were superfused with basal medium for 30 min to reach a constant outflow of [^3H]-ACh. Under these experimental conditions, the radioactivity released consisted largely of newly synthesized [^3H]-ACh. The K^+-stimulated release of [^3H]-ACh was determined in 2 subsequently collected fractions: 6 min basal release (superfusion with basal medium) and 6 min K^+-evoked release (superfusion for 1.5 min with 15 mM K^+-containing medium followed by […] basal medium). The test compounds galantamine, 4 and 2 were present in the superfusion medium concomitantly with 15 mM K^+ (for 1.5 min). Basal release of [^3H]-ACh (continuous superfusion with basal medium) was determined by collection of a 6 min sample followed by four subsequent 2 min samples. Aliquots of samples were mixed with scintillation liquid and the radioactivity quantified with a scintillation counter. The radioactivity bound to the filters was also measured.
Statistical analysis: The amount of [^3H]-ACh released in each sample was calculated as fraction of total synaptosomal tritium at the start of the respective collection period (tritium in the sample / sum of tritium in the respective fractions and in the synaptosomes on the filter). K^+-evoked release was expressed as percentage of basal release rate. Each n=1 represents the mean of an experiment with one synaptosomal preparation in at least 3 superfusion chambers. Statistical significance of group variances was calculated by one way ANOVA followed by Bonferroni's test.

[7] = target: T4, σ receptors labelled by [^3H](+)-pentazocine (σ1) (Cavia porcellus, UniProt Q60492); assay: Sigma receptor binding assay, [3H](+)-pentazocine; parameters: species or system guinea pig
T4 construct: from tissue; host or cells: guinea pig brain membranes
T4 sequence (Q60492 whole entry): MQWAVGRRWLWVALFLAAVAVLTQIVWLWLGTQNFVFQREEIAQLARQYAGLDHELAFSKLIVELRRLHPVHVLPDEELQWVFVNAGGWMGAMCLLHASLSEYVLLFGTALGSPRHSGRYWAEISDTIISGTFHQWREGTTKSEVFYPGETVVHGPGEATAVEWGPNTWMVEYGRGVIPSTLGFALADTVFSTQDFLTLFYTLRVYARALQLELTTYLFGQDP
Protocol: (§4) Filters were washed three times with 5 ml of ice-cold 10 mM Tris-HCI buffer (pH 8). The bound radioactivity was measured by liquid scintillation counting (Beckman Coulter™ LS6500). […] The values are expressed as the mean ± S.E.M of 2 - 4 independent experiments, each performed in duplicate.

[8] = target: σ receptors labelled by [^3H]DTG (σ1 + σ2); assay: Sigma receptor binding assay, [3H]DTG; details: read-out: IC50 ± SEM [^3H]DTG (σ1 + σ2); guinea pig brain membranes; compounds 1-5 tested up to 10 µM
Protocol: as §4

[9] = target: T5, µ opioid receptor (Rattus norvegicus, UniProt P33535); assay: Opioid receptor binding assay, [3H]DAMGO, rat brain membranes; parameters: Membrane fractions were prepared from Sprague-Dawley rat or guinea pig brains; from tissue; host or cells: Sprague-Dawley rat brain (without cerebella) membranes; species or system Sprague-Dawley rat
T5 sequence (P33535 whole entry): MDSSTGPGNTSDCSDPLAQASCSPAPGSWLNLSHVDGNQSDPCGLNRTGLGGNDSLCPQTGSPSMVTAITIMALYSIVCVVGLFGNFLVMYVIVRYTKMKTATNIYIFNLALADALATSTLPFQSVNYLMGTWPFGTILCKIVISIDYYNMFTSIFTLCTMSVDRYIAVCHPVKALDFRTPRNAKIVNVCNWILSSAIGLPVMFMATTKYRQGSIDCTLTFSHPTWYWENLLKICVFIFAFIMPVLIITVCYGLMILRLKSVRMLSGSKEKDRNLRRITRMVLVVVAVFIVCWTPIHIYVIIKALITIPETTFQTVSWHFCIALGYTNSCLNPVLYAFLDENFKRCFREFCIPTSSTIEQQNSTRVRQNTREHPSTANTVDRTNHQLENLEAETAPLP
Protocol: as §1, §2, §3

[10] = test system: C57BL/6N female mice; assay: Open field (locomotor activity); format: in vivo
From the text: Each mouse was used only once. […] . […] Thereafter it was replaced by the obturator.
The open field consisted of a transparent plastic box with white floor (41 x 41 x 41 cm) equipped with an automated activity monitoring system (True Scan, Coulbourn Instruments, Allentown, Pennsylvania, USA). The illumination at floor level was 150 lux. Mice were individually placed into the centre of the open field and their behaviours were tracked with the activity monitoring system. The time of locomotor activity, the overall distance travelled by the mice and the fraction of locomotor activity in the center area (center distance and center time) were monitored for 10 min. The arena was thoroughly cleaned with wet paper towels and dried at the end of each test.
Statistical analysis: All data from behavioural studies are shown as mean ± SEM. Statistical analysis was performed using the analysis of variance (ANOVA), followed by post hoc multiple comparisons Tukey-Kramer test, except comparison of alternation rates with the theoretical value of chance (defined as 50%) which was evaluated by Wilcoxon signed rank test. All statistical analyses were carried out by using the Graphpad Prism Program, version 4.0, Graphpad software, Inc.

[11] = target: T6, δ receptor (Rattus norvegicus, UniProt P33533); assay: [35S]GTPγS functional assay, rat brain membranes, δ receptor; format: biochemical, Sprague-Dawley rat
T6 construct: Membrane fractions were prepared from Sprague-Dawley rat or guinea pig brains; from tissue; host or cells: Sprague-Dawley rat brain (without cerebella) membranes
T6 sequence (P33533 whole entry): as the sequence (P33533 whole entry) above
Protocol: (§5) Membrane fractions were prepared from Sprague-Dawley rat or guinea pig brains as described above. To determine binding of [^35S]GTPyS, rat or guinea pig brain membranes (10 µg of protein) were incubated for 60 min at 30 °C in Tris-EGTA buffer (50 mM Tris-HCl buffer, 3 mM MgCl2, 1 mM EGTA, […], pH 7.4) containing 30 µM GDP, 0.05 nM [^35S]GTPyS and appropriate concentrations of the respective compounds according to the present invention in a final volume of 1 ml. The reaction was terminated by vacuum filtration through Whatman GF/B glass fibre filters. Filters were washed three times with ice-cold 50 mM Tris-HCI buffer (pH 7.4) and the bound radioactivity was measured by liquid scintillation counting (Beckman Coulter™ LS6500). Basal activity was determined by subtracting the non-specific binding (measured in the presence of 100 µM unlabelled GTPyS) from the total binding (measured in the absence of the compound).
(§6) Stimulation produced by the compound is given as percentage of the basal activity (given as 100%). Functional data, EC50 (nM; half maximal effective concentration) and maximal stimulation Emax (% stimulation over basal level; maximal effective concentration), were calculated by using nonlinear regression analysis and sigmoidal curve fitting GraphPad Prism (San Diego, CA, USA) program. The values are expressed as the mean ± S.E.M of at least 3 independent experiments, each performed in triplicate. Statistical analysis was carried out using SPSS software (SPSS Inc., Chicago, lL, USA) and the Student T-test was used to compare different assay conditions. A ρ value < 0.05 was considered statistically significant.

[12] = test system: C57BL/6N female mice; assay: T-maze continuous alternation
[13] = target: T5, µ opioid receptor; assay: [35S]GTPγS functional assay, rat brain membranes, µ receptor; format: biochemical, Sprague-Dawley rat; parameters: Membrane fractions were prepared from Sprague-Dawley rat or guinea pig brains; from tissue; host or cells: Sprague-Dawley rat brain (without cerebella) membranes; details: rat brain membranes
Protocol: as §5, §6

[14] = target: T7, K receptor (Cavia porcellus, UniProt P41144); format: biochemical, guinea pig
T7 construct: Membrane fractions were prepared from Sprague-Dawley rat or guinea pig brains; from tissue; host or cells: guinea pig brain (without cerebella) membranes
T7 sequence (P41144 whole entry): as the sequence (P41144 whole entry) above

[15] = scopolamine 0.033 µmol, compound 0.1 µmol i.c.v.

Structure (SMILES): O=CN1CC[C@]23c4c5cccc4OC2C(=O)CC[C@H]3[C@H]1C5 (stereo in doubt) [Compound 3, 4,5-epoxy-N-formylmorphinan-6-one]
- Ki [1]: > 10 µM
- Ki ([1]; read-out: Opioid binding affinities Ki δ receptor, [3H][Ile5,6]deltorphin II, rat brain membranes): > 10 µM
- IC50 [2]: 60.3 µM
- Ki [3]: > 10 µM
- Ki ([3]; read-out: Opioid binding affinities Ki κ receptor, [3H]U69,593, guinea pig brain membranes): > 10 µM
- effect on ACh in the superfusate (in words) ([4]; 1 µmol i.c.v.): increased ACh release
- effect on ACh in the superfusate (in words) ([4]; 2 µmol i.c.v.): did not influence ACh up to 160 min followed by a decline thereafter
- 0AUC120 min (% increase x min) Mean ± SEM ([4]; Dose 1 µmol i.c.v.): 410 ± 227 % increase x min
- Increase in ACh release (Peak increase as % of basal output) ([4]; Dose 1 µmol i.c.v.): 123 ± 91 %
- 0AUC120 min (% increase x min) Mean ± SEM ([4]; Dose 2 µmol i.c.v.): 160 ± 140 % increase x min
- Increase in ACh release (Peak increase as % of basal output) ([4]; Dose 2 µmol i.c.v.): 75 ± 73%
- object recognition (memory) ([5]; 0.02 µmol i.c.v.): did not influence the object recognition
- effect on scopolamine-induced impairment of object recognition [5]: ineffective
- effect on K+-evoked ACh release in frontal-cortex synaptosomes [6]: did not influence ACh release
- IC50 [7]: > 10 µM
- IC50 [8]: > 10 µM
- Ki [9]: > 10 µM
- Ki ([9]; read-out: Opioid binding affinities Ki µ receptor, [3H]DAMGO, rat brain membranes): > 10 µM

Structure (SMILES): C=CCN1CC[C@]23CC(=O)CC[C@@]2(OC)[C@H]1Cc1cccc(OC)c13 [Compound 5, 4,14-dimethoxy-N-allyl-morphinan-6-one]
- general locomotion in the open field (move distance, move time) ([10]; 0.1 µmol i.c.v., 10 min): did not influence
- fraction of locomotor activity in the central zone ([10]; dose not given): did not influence
- Ki [1]: 1.25 µM
- IC50 ([2]; 96-well microplate, 1% DMSO, read-out: AChE inhibitory activity IC50): 81.9 µM
- Ki [3]: 0.328 µM
- effect on ACh in the superfusate (in words) ([4]; 0.5 µmol i.c.v.): did not increase brain ACh
- effect on ACh in the superfusate (in words) ([4]; 1 µmol i.c.v.): short peak increase
- 0AUC120 min (% increase x min) Mean ± SEM ([4]; Dose 1 µmol i.c.v.): 158 ± 111 % increase x min
- Increase in ACh release (Peak increase as % of basal output) ([4]; Dose 1 µmol i.c.v.): 51 ± 43%
- [35S]GTPγS binding on co-incubation with naltrindole versus antagonist alone ([11]; 10 µM each): did not produce any significant increase
- effect on [35S]GTPγS binding stimulated by SNC 80 ([11]; compound 10 µM, SNC 80 10 µM): did not cause any significant changes
- object recognition (memory) ([5]; 0.1 µmol i.c.v.): increased the exploration ratio
- effect on scopolamine-induced impairment of object recognition [5]: ineffective
- spontaneous alternation rate ([12]; normal mice, 0.1 µmol i.c.v.): did not influence alternation
- effect on scopolamine-enhanced running time [12, 15]: further increased
- effect on scopolamine-impaired alternation [12, 15]: had no effect
- IC50 [7]: > 10 µM
- [35S]GTPγS binding on co-incubation with cyprodime versus antagonist alone ([13]; 10 µM each): did not produce any significant increase
- effect on [35S]GTPγS binding stimulated by DAMGO ([13]; compound 10 µM, DAMGO 10 µM): significantly decreased
- [35S]GTPγS binding in the presence of the compound alone ([13]; compared with DAMGO): no increase
- effect on [35S]GTPγS binding stimulated by U69,593 [14]: no significant effect
- [35S]GTPγS binding on co-incubation with Nor-BNI versus antagonist alone ([14]; 10 µM each, guinea pig brain membranes): did not produce any significant increase
- [35S]GTPγS binding in the presence of the compound alone ([14]; guinea pig brain membranes, compared with U69,593): no increase
- IC50 [8]: > 10 µM
- Ki [9]: 0.0672 µM
- binding to opioid receptor µ (in words) [9]: some µ opioid receptor affinity
- selectivity among opioid receptor types ([9]; from binding, Table 3): moderate selectivity for the µ type
